Laboratory results reported in patent US4761414A, “Substituted 1H-pyrimido[1,2-a-]-pyrido[3,4-e]pyrazine 6 oxides” (G. D. Searle & Co., priority 1986, dated 1988).
≈ marks a conversion by molar mass, not a printed value.

What was measured:
Assay type in all cases: cell-based
[1] = system: Bacteroides melanogenicus NCTC 9336; experiment: MIC vs panel of anaerobes; conditions: NCTC9336, procedures of Example 40
[2] = system: Clostridium perfringens NCTC 8237; experiment: microbe, parasite or virus in culture; conditions: Clostridium perfringens, NCTC8237, Clostridium perfringens NCTC 8237; procedures of Example 40
[3] = system: B. fragilis NCTC 9344; experiment: MIC/MBC against Bacteroides fragilis strain C; conditions: for MBC: NCTC9344, 99.9% reduction in viable count; for MIC: NCTC9344, 48 h, 48 hours, 37° C., anaerobic
Experimental: (§1) The screening panel utilized in this Example consisted of 5 strains of Bacteroides fragilis. All assays were carried out in 96-well microtitre plates. If an isolate was obtained from either a culture collection or clinical source, the isolate was immediately inoculated into Wilkens-Chalgren broth (Oxoid) and incubated at 37° C. in an anaerobic chamber in an atmosphere of 85% nitrogen, 10% carbon dioxide, and 5% hydrogen for 48 hours. At the end of this time, the viable count was about 10^12 organisms/ml broth. A 1 ml aliquot of each culture was placed in an ampoule and quick frozen in acetone-dry ice mixture and stored in liquid nitrogen. When an inoculum was utilized in an assay, one of the ampoules was thawed and diluted with fresh broth to yield a suspension having a count of 5×10^5 organisms/ml. A 100 μl aliquot of this suspension was inoculated into each well of the microtitre plate. A 2 mg sample of the test compound was dissolved in 0.2 ml of a suitable solvent such as dimethylsulfoxide, polyethylene glycol 200 or methanol. […] After addition of the test solution the final inoculum level was 10^5 cells/ml. The plates were incubated for 48 hours at 37° C. in the anaerobic chamber. The Minimum Inhibitory Concentration (MIC) was read visually. The MIC is defined as the lowest concentration at which there is no detectable growth. The Minimum Bactericidal Concentration (MBC) was determined by taking 50 μl aliquot from each well and placing it in fresh medium. […] The strains of Bacteroides fragilis utilized in the above procedure are identified by letter in accordance with the following legend: |C B. fragilis NCTC 9344

[4] = system: Fusobacterium necrophorum ATCC 11295; experiment: MIC vs panel of anaerobes; conditions: Fusobacterium necrophorum, ATCC11295, Fusobacterium necrophorum ATCC 11295; procedures of Example 40; read-out: MIC
[5] = system: Peptococcous magnus; experiment: MIC vs panel of anaerobes; conditions: procedures of Example 40
[6] = system: Peptostreptococcus; experiment: MIC vs panel of anaerobes; conditions: procedures of Example 40
[7] = system: B. fragilis NCTC 9343; experiment: MIC/MBC against Bacteroides fragilis strain B; conditions: for MBC: NCTC9343, 99.9% reduction in viable count; for MIC: NCTC9343, 48 h, 48 hours, 37° C., anaerobic
Experimental: as §1, with “|B” for “|C”, “9343” for “9344”

[8] = system: Propionebacterium acnes NCTC 737; experiment: MIC vs panel of anaerobes; conditions: procedures of Example 40
[9] = system: Campylobacter fetus ss. jejuni ATCC 29428; experiment: MIC vs panel of anaerobes; conditions: ATCC29428, procedures of Example 40
[10] = system: P. anaerobius; experiment: MIC vs panel of anaerobes; conditions: Peptostreptococcus anaerobius, procedures of Example 40
[11] = system: B. melanogenicus ATCC 15032; experiment: MIC vs panel of anaerobes; conditions: procedures of Example 40

SMILES | MIC [1] | MIC [2] | MBC [3] | MIC [3] | MIC [4] | MIC [5] | MIC [6] | MBC [7] | MIC [7] | MIC [8] | MIC [9] | MIC [10] | MIC [11]
CC1(C)CN=C2C(c3ccccc3)=[N+]([O-])c3cnccc3N2C1 [Example 15, 2,3-Dihydro-2,2-dimethyl-5-phenyl-1H-pyrimido[1,2-a]pyrido[3,4-e]pyrazine 6-oxide] | 100 µg/mL (≈ 326 µM) | 12.5 µg/mL (≈ 40.8 µM) | < 0.8 µg/mL | < 0.8 µg/mL | < 0.8 µg/mL | < 0.8 µg/mL | 100 µg/mL (≈ 326 µM) | < 0.8 µg/mL | < 0.8 µg/mL | > 100 µg/mL | – | – | –
CC1(C)CN=C2C(c3ccc(Cl)cc3)=[N+]([O-])c3cnccc3N2C1 [Example 17, 2,3-Dihydro-5-(4-chlorophenyl)-2,2-dimethyl-1H-pyrimido[1,2-a]pyrido[3,4-e]pyrazine 6-oxide] | > 100 µg/mL | 6.2 µg/mL (≈ 18.2 µM) | < 0.8 µg/mL | < 0.8 µg/mL | 3.1 µg/mL (≈ 9.1 µM) | – | > 100 µg/mL | 1.5 µg/mL (≈ 4.4 µM) | 1.5 µg/mL (≈ 4.4 µM) | > 100 µg/mL | 100 µg/mL (≈ 293 µM) | – | –
Cc1ccc(C2=[N+]([O-])c3cnccc3N3CC(C)(C)CN=C23)cc1 [Example 19, 2,3-Dihydro-2,2-dimethyl-5-(4-methylphenyl)-1H-pyrimido[1,2-a]pyrido[3,4-e]pyrazine 6-oxide] | – | 1.5 µg/mL (≈ 4.68 µM) | < 0.8 µg/mL | < 0.8 µg/mL | < 0.8 µg/mL | < 0.8 µg/mL | – | 1.5 µg/mL (≈ 4.68 µM) | < 0.8 µg/mL | – | – | – | –
COc1ccc(C2=[N+]([O-])c3cnccc3N3CC(C)(C)CN=C23)cc1OC [Example 21] | – | – | 1.5 µg/mL (≈ 4.09 µM) | < 0.8 µg/mL | – | – | – | 1.5 µg/mL (≈ 4.09 µM) | 1.5 µg/mL (≈ 4.09 µM) | – | – | – | –
COc1ccc(C2=[N+]([O-])c3cccnc3N3CC(C)(C)CN=C23)cc1OC [Example 22, 2,3-Dihydro-5-(3,4-dimethoxyphenyl)-2,2-dimethyl-1H-pyrimido[1,2-a]pyrido[3,2-e]pyrazine 6-oxide] | > 100 µg/mL | 6.2 µg/mL (≈ 16.9 µM) | < 0.8 µg/mL | < 0.8 µg/mL | < 0.8 µg/mL | – | 100 µg/mL (≈ 273 µM) | < 0.8 µg/mL | < 0.8 µg/mL | > 100 µg/mL | 50 µg/mL (≈ 136 µM) | – | –
CCC1(C)CN=C2C(c3ccccc3)=[N+]([O-])c3cnccc3N2C1 (stereo not shown) [Example 23, 2,3-Dihydro-2-ethyl-2-methyl-5-phenyl-1H-pyrimido[1,2-a]pyrido[3,4-e]pyrazine 6-oxide] | – | 6.2 µg/mL (≈ 19.4 µM) | < 0.8 µg/mL | < 0.8 µg/mL | < 0.8 µg/mL | – | – | < 0.8 µg/mL | < 0.8 µg/mL | > 100 µg/mL | 100 µg/mL (≈ 312 µM) | 100 µg/mL (≈ 312 µM) | > 100 µg/mL
CCC1(C)CN=C2C(c3ccccc3)=[N+]([O-])c3cccnc3N2C1 (stereo not shown) [Example 24, 2,3-Dihydro-2-ethyl-2-methyl-5-phenyl-1H-pyrimido[1,2-a]pyrido[3,2-e]pyrazine 6-oxide] | – | 6.2 µg/mL (≈ 19.4 µM) | < 0.8 µg/mL | < 0.8 µg/mL | < 0.8 µg/mL | – | – | < 0.8 µg/mL | < 0.8 µg/mL | 100 µg/mL (≈ 312 µM) | 50 µg/mL (≈ 156 µM) | 100 µg/mL (≈ 312 µM) | 100 µg/mL (≈ 312 µM)
CCC1(CC)CN=C2C(c3ccccc3)=[N+]([O-])c3cnccc3N2C1 [Example 25, 2,3-Dihydro-2,2-diethyl-5-phenyl-1H-pyrimido[1,2-a]pyrido[3,4-e]pyrazine 6-oxide] | – | 3.1 µg/mL (≈ 9.27 µM) | 1.5 µg/mL (≈ 4.49 µM) | 1.5 µg/mL (≈ 4.49 µM) | 31 µg/mL (≈ 92.7 µM) | 100 µg/mL (≈ 299 µM) | – | 1.5 µg/mL (≈ 4.49 µM) | 1.5 µg/mL (≈ 4.49 µM) | > 100 µg/mL | 100 µg/mL (≈ 299 µM) | 100 µg/mL (≈ 299 µM) | > 100 µg/mL
CCC1(CC)CN=C2C(c3ccccc3)=[N+]([O-])c3cccnc3N2C1 [Example 26, 2,3-Dihydro-2,2-diethyl-5-phenyl-1H-pyrimido[1,2-a]pyrido[3,2-e]pyrazine 6-oxide] | – | 1.5 µg/mL (≈ 4.49 µM) | < 0.8 µg/mL | < 0.8 µg/mL | 1.5 µg/mL (≈ 4.49 µM) | 12.5 µg/mL (≈ 37.4 µM) | – | 1.5 µg/mL (≈ 4.49 µM) | 1.5 µg/mL (≈ 4.49 µM) | 100 µg/mL (≈ 299 µM) | 50 µg/mL (≈ 150 µM) | 50 µg/mL (≈ 150 µM) | 100 µg/mL (≈ 299 µM)
CCCC1(C)CN=C2C(c3ccccc3)=[N+]([O-])c3cnccc3N2C1 (stereo not shown) [Example 27, 2,3-Dihydro-2-methyl-5-phenyl-2-propyl-1H-pyrimido[1,2-a]pyrido[3,4-e]pyrazine 6-oxide] | – | – | < 0.8 µg/mL | < 0.8 µg/mL | – | – | – | < 0.8 µg/mL | < 0.8 µg/mL | – | – | – | –
CCCC1(C)CN=C2C(c3ccccc3)=[N+]([O-])c3cccnc3N2C1 (stereo not shown) [Example 28, 2,3-Dihydro-2-methyl-5-phenyl-2-propyl-1H-pyrimido[1,2-a]pyrido[3,2-e]pyrazine 6-oxide] | – | – | < 0.8 µg/mL | < 0.8 µg/mL | – | – | – | < 0.8 µg/mL | < 0.8 µg/mL | – | – | – | –
[O-][N+]1=C(c2ccccc2)C2=NCC3(CCCCC3)CN2c2ncccc21 [Example 29, Spiro[cyclohexane-1,2'-[2,3]-dihydro-[5]-phenyl-[1H]pyrimido[1,2-a]pyrido[3,2-e]pyrazine [6]-oxide]] | – | – | < 0.8 µg/mL | < 0.8 µg/mL | 6.2 µg/mL (≈ 17.9 µM) | < 0.8 µg/mL | – | < 0.8 µg/mL | < 0.8 µg/mL | > 100 µg/mL | 50 µg/mL (≈ 144 µM) | < 0.8 µg/mL | 100 µg/mL (≈ 289 µM)
[O-][N+]1=C(c2ccccc2)C2=NCC3(CCCCC3)CN2c2ccncc21 [Example 30, Spiro[cyclohexane-1,2'-[2,3]-dihydro-[5]-phenyl-[1H]pyrimido[1,2-a]pyrido[3,4-e]pyrazine [6]-oxide]] | – | 12.5 µg/mL (≈ 36.1 µM) | < 0.8 µg/mL | < 0.8 µg/mL | 3.1 µg/mL (≈ 8.95 µM) | – | – | 1.5 µg/mL (≈ 4.33 µM) | < 0.8 µg/mL | > 100 µg/mL | 100 µg/mL (≈ 289 µM) | 100 µg/mL (≈ 289 µM) | > 100 µg/mL
CC1(C)CN=C2C(c3ccc(F)cc3)=[N+]([O-])c3cccnc3N2C1 [Example 31, 2,3-Dihydro-2,2-dimethyl-5-(4-fluorophenyl)-1H-pyrimido[1,2-a]pyrido[3,2-e]pyrazine 6-oxide] | – | 12.5 µg/mL (≈ 38.5 µM) | < 0.8 µg/mL | < 0.8 µg/mL | 3.1 µg/mL (≈ 9.56 µM) | – | – | < 0.8 µg/mL | < 0.8 µg/mL | > 100 µg/mL | 100 µg/mL (≈ 308 µM) | 100 µg/mL (≈ 308 µM) | > 100 µg/mL
CC1CN=C2C(c3ccccc3)=[N+]([O-])c3cccnc3N2C1 (stereo not shown) [Example 32, 2,3-Dihydro-2-methyl-5-phenyl-1H-pyrimido[1,2-a]pyrido[3,2-e]pyrazine 6-oxide] | – | 6.2 µg/mL (≈ 21.2 µM) | < 0.8 µg/mL | < 0.8 µg/mL | < 0.8 µg/mL | < 0.8 µg/mL | – | 1.5 µg/mL (≈ 5.13 µM) | 1.5 µg/mL (≈ 5.13 µM) | – | – | – | –
CC1(C)CN=C2C(c3ccc(F)cc3)=[N+]([O-])c3cnccc3N2C1 [Example 33, 2,3-Dihydro-2,2-dimethyl-5-(4-fluorophenyl)-1H-pyrimido[1,2-a]pyrido[3,4-e]pyrazine 6-oxide] | – | – | < 0.8 µg/mL | < 0.8 µg/mL | – | – | – | < 0.8 µg/mL | < 0.8 µg/mL | – | – | – | –
CC1CN=C2C(c3ccccc3)=[N+]([O-])c3cnccc3N2C1 (stereo not shown) [Example 34, 2,3-Dihydro-2-methyl-5-phenyl-1H-pyrimido[1,2-a]pyrido[3,4-e]pyrazine 6-oxide] | – | – | < 0.8 µg/mL | < 0.8 µg/mL | – | – | – | < 0.8 µg/mL | < 0.8 µg/mL | – | – | – | –
